The source of these data is patent publication US9295732B2, “Conjugated TLR7 and/or TLR8 and TLR2 polycationic agonists” (CAYLA, priority 2013, dated 2016).

Values joined by “and” are separate entries in the source; they are usually repeats but may differ in a detail not shown here. Equal values may be shown once.

A short description of data set [1]: Nanoparticle (lipoplex) size by dynamic light scattering.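 For all read-outs here: lipoplexes of TLR7-TLR2 polyamine conjugates with plasmid DNA, formed over 30 min at room temperature in serum-free medium or 5% glucose, diameter in nm, PDI dimensionless.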 Particulars: 25° C., triplicate; for Mean Diameter: complexes with pDNA 3:24 (w:w), dynamic light scattering; for PDI: polydispersity index of complexes with pDNA 3:24 (w:w).
Data set [2] deals with T1, human TLR7 (Homo sapiens, UniProt Q9NYK1).
T1 construct: host or cells: HEK293 (HEK-Blue™ hTLR7)
T1 sequence (Q9NYK1 27-1049): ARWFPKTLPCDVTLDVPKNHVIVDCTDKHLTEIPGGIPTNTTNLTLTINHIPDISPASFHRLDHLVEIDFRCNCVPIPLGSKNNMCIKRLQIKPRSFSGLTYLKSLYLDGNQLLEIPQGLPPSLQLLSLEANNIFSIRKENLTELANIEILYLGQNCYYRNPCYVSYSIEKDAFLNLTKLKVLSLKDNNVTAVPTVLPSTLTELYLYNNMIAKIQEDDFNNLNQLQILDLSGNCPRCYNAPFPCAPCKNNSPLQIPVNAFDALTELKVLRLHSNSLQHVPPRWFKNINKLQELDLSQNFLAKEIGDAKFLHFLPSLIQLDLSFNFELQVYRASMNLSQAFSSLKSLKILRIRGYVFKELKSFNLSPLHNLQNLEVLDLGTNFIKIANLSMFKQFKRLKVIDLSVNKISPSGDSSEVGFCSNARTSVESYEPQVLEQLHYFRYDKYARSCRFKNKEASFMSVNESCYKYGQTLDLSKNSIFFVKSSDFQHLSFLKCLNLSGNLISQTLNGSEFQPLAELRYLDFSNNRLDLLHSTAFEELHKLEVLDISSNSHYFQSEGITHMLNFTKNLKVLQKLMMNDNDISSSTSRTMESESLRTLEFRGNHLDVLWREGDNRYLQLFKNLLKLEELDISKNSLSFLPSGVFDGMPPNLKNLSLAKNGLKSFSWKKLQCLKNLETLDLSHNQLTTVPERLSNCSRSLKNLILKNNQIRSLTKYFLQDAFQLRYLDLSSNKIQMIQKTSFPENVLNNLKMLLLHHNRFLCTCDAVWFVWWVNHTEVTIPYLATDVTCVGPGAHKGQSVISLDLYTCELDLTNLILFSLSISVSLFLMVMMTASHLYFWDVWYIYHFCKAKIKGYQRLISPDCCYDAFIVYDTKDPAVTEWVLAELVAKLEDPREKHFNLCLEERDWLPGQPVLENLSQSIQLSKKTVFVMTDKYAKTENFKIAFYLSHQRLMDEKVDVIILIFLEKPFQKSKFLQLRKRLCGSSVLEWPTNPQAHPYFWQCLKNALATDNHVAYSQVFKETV
In words: HEK-Blue hTLR7 NF-κB/AP-1 SEAP reporter assay. The class given is cell-based. The note with it: HEK-Blue hTLR7 cells, 10 μg/mL to 10 pg/ml, 24 hours, OD at 655 nm, FIG. 1. The procedure: (§1) Cell-based assays were carried out using TLR7 and TLR2 reporter cell lines (InvivoGen). The reporter cell lines are engineered HEK293 cells, a human embryonic kidney cell line (ATCC, CRL-1573) that stably express either murine TLR7 (HEK-Blue™ mTLR7) or human TLR7 (HEK-Blue™ hTLR7) or human TLR2 (HEK-Blue™ hTLR2) with an NF-κB-inducible secreted embryonic alkaline phosphatase (SEAP) as the reporter gene. The SEAP reporter gene is under the control of the NF-κB and AP-1-inducible promoter, which, upon treatment with a corresponding TLR ligand and activation of NF-κB and AP-1, induces the production of SEAP. Detection of SEAP is measured following culturing cells in HEK-Blue™ Detection media (InvivoGen). HEK-Blue™ Detection contains a SEAP substrate that when hydrolysed by SEAP produces a colorimetric change allowing for detection of SEAP as the protein is secreted. […] These assays were carried out using RAW-Blue™ Cells (InvivoGen), derived from RAW 264.7 mouse leukemic monocyte macrophage cell line (ATCC, CRL 2278) stably overexpressing a NF-B/AP-1 inducible SEAP reporter constructs.
(§2) To perform the assay, cells were seeded on 96 well microliter plates at 50,000 or 100,000 cells per well for HEK-Blue™ Cells and RAW-Blue™ Cells respectively, and cultured at 37° C. in the presence of the conjugated compounds The TLR7-TLR2 polyamine molecules were prepared as follows: First, stock solutions of the conjugated compounds of the invention were prepared in ethanol or water to a concentration of 10 mg/ml.
(§3) The working dilutions of the conjugated TLR7-TLR2 polyamine agonists made up in water or PBS were directly added to the reporter cell lines at a final concentration ranging from 10 μg/mL to 10 pg/ml and incubated at 37° C. for 24 hours. After 24 hours of incubation, the effect on reporter gene activity was determined by reading the OD at 655 nm using iMark™ Microplate Reader (BIO-RAD).

Data set [3] deals with T2, murine TLR7 (Mus musculus, UniProt P58681).
T2 construct: host or cells: HEK293 (HEK-Blue™ mTLR7)
T2 sequence (P58681 27-1050): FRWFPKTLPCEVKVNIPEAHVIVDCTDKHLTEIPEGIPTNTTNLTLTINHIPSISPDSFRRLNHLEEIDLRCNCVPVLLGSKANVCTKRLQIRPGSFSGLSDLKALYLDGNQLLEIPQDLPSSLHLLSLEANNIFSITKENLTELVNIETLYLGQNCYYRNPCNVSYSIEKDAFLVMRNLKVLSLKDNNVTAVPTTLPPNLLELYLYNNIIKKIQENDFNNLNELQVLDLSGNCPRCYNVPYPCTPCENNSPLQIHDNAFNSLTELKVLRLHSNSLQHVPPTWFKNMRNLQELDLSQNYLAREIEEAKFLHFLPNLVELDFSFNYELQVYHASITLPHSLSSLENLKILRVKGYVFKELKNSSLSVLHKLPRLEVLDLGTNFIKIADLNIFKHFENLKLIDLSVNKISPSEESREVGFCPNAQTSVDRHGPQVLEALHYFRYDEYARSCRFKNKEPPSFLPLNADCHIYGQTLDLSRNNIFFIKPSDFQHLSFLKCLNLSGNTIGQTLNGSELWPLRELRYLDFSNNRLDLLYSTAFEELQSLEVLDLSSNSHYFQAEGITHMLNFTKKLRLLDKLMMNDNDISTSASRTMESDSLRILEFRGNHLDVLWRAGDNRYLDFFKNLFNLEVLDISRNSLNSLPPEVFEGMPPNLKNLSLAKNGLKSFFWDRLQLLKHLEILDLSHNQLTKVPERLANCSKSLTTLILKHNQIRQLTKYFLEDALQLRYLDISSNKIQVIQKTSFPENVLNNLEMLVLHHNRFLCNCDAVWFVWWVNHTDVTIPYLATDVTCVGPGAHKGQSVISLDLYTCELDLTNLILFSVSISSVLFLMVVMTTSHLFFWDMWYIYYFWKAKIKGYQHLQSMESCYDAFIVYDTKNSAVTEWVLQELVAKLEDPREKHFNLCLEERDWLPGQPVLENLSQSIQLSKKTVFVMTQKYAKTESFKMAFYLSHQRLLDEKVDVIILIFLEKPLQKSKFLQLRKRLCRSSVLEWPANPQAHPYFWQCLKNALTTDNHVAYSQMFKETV
In words: HEK-Blue mTLR7 NF-κB/AP-1 SEAP reporter assay. In kind it is cell-based. Particulars: HEK-Blue mTLR7 cells, 10 μg/mL to 10 pg/ml, 24 hours, OD at 655 nm, FIG. 2. How it is done: as §1, §2, §3
For orientation: In a reporter assay the amount or activity of a reporter protein is the signal.

Data set [4] relates to plasmid DNA (pDNA). In words: Gel shift (mobility shift) assay of pDNA complexation. The class given is binding. The note with it: pDNA:molecule ratio 3:24 (w:w), 0.8% agarose gel, compared to pDNA alone. The gist of the method:
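Complexes of pDNA with TLR7-TLR2 polyamine molecules run on 0.8% agarose in TAE at 135 V for 21 min, ethidium bromide stained and viewed under UV. Complexation scored as partial or complete retardation of pDNA migration versus pDNA alone, complexed pDNA appearing as a smear in wells.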

Data set [5] deals with T3, human TLR2 (Homo sapiens, UniProt O60603).
T3 construct: host or cells: HEK293 (HEK-Blue™ hTLR2)
The data set is described as follows: HEK-Blue hTLR2 NF-κB/AP-1 SEAP reporter assay. The note with it: HEK-Blue hTLR2 cells, 10 μg/mL to 10 pg/ml, 24 hours, OD at 655 nm, FIG. 3. The class given is cell-based. The procedure: as §1, §2, §3

Data set [6] concerns endogenous TLR2 and TLR7 in RAW-Blue™ Cells. In words: RAW-Blue Cells NF-κB/AP-1 SEAP reporter assay. The class given is cell-based, mouse. Particulars: 24 hours, OD at 655 nm, FIG. 4. The procedure: as §1, §2, §3
Data set [7] concerns B16-F1 tumor. In words: In vivo mouse B16-F1 tumor model, molecule alone. On the set-up: species or system C57BL/6 mice. The note with it: by day 42, intra-tumoral injections, FIG. 8B. The procedure:
Measurements were performed under gas anesthesia.
The second group received intra-tumoral injections of CL413 molecule alone (a TLR7-TLR2 Pam2CSK4-based molecule). Third and forth groups received intra-tumoral injections of the TLR2 ligand, Pam2CSK4 alone, and the TLR7 ligand alone, respectively. A fifth group received a combined treatment of Pam2CSK4 and TLR7 ligand, in solution at the equivalent molecule quantity of the respective TLR2 and TLR7 moieties in CL413 (in 100 μl Bionolyte G5® with Pluronic® F-68 2%) for a total of 3 injections.

T3 sequence (O60603 21-784): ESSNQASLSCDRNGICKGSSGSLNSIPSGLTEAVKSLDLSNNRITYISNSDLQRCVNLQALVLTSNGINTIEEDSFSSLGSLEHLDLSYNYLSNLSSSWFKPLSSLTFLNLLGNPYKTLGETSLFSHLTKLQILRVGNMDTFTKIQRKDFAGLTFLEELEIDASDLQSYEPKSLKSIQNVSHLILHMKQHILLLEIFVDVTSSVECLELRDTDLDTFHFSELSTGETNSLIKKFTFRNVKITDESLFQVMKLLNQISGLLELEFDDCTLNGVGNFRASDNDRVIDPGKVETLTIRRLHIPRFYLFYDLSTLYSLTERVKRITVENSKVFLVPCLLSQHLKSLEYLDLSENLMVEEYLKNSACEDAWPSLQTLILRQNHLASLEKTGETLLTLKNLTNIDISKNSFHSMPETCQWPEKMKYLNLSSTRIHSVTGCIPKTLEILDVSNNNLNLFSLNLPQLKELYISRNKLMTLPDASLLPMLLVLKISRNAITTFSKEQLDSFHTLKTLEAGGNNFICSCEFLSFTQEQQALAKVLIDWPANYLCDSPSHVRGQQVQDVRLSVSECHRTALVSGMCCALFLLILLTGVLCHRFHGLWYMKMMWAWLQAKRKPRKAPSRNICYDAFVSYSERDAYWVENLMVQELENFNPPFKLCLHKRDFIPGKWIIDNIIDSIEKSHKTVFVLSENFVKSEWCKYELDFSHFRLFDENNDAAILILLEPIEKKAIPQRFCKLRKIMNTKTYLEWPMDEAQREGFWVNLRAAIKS

As for `CCCCCCCCCCCCCCCC(=O)OCC(CSC[C@H](N)C(=O)N[C@@H](CCCCNC(=O)CNC(=O)c1ccc(Cn2c(O)nc3c(N)nc(NCCCC)nc32)cc1)C(=O)NCCCNCCCCNCCCN)OC(=O)CCCCCCCCCCCCCCC` (stereo partly drawn) [CL475, (6R,9S)-6,23-diamino-9-(4-(2-(4-((6-amino-2-(butylamino)-8-hydroxy-9H-purin-9-yl)methyl)benzamido)acetamido)butyl)-7,10-dioxo-4-thia-8,11,15,20-tetraazatrico sane-1,2-diyl dipalmitate], in data set [1], the “Mean Diameter” value is 145.9 nm and 155.8 nm and 153.5 nm; the PDI is 0.193 and 0.176 and 0.158. In data set [2], the “ability to activate hTLR7” value is recorded as “activate hTLR7”. Besides, in data set [3], the “ability to activate mTLR7” value is listed as “activate mTLR7”. Moreover, the “ability to complex pDNA (retardation of pDNA migration in agarose gel)” value in data set [4] is given as “inability to migrate through an agarose gel”. The “ability to activate hTLR2” value in data set [5] is “activate hTLR2”. Besides, the “ability to activate endogenous TLR2 and TLR7 in RAW-Blue Cells” value in data set [6] is “activate endogenous TLR2 and TLR7”.

“dipalmitoyl-S-glyceryl cysteine-serine-(lysine)4 [Pam2CSK4, reference compound]”: in data set [7], the “mice still alive (survival)” value was 60%.

On to `CCCCCCCCCCCCCCCC(=O)OCC(CSC[C@H](N)C(=O)NCCCC[C@H](NC(=O)CNC(=O)c1ccc(Cn2c(O)nc3c(N)nc(NCCCC)nc32)cc1)C(=O)NCCCNCCCCNCCCN)OC(=O)CCCCCCCCCCCCCCC` (stereo partly drawn) [CL487, (6R,13S)-6,27-diamino-13-(2-(4-((6-amino-2-(butylamino)-8-hydroxy-9H-purin-9-yl)methyl)benzamido)acetamido)-7,14-dioxo-4-thia-8,15,19,24-tetraazaheptacosane-1,2-diyl dipalmitate], for which, in data set [1], the “Mean Diameter” value was 165.6 nm and 160.0 nm and 148.1 nm; the PDI is 0.255 and 0.241 and 0.23. The “ability to activate hTLR7” value in data set [2] is recorded as “activate hTLR7”. For the same compound, the “ability to activate mTLR7” value in data set [3] is given as “activate mTLR7”. Also, in data set [4], the “ability to complex pDNA (retardation of pDNA migration in agarose gel)” value is “inability to migrate through an agarose gel”. Further, the “ability to activate hTLR2” value in data set [5] is listed as “activate hTLR2”. The “ability to activate endogenous TLR2 and TLR7 in RAW-Blue Cells” value in data set [6] was “activate endogenous TLR2 and TLR7”.
